Laboratory results from patent US7368129B1, “Amphiphilic materials and liposome formulations thereof” (Nutrimed Biotech, priority 1996, dated 2008).

Test: X-ray diffraction of hydrated amphiphile and phosphatidylcholine mixtures at constant osmotic pressure
Type: physicochemical
Conditions: 20° C., constant osmotic pressure 1.6×10^5 dyne/cm^2; 20 mole percent Oleoyl-PEG(1500)-Oleoyl; pure SOPC = 0 mole % additive
Source text: Unoriented multilamellar fully hydrated lipid preparations in sealed glass capillaries held in a point collimated X-ray beam produce recordable “powder” diffraction patterns. The overall lamellar repeat period calculated from X-ray diffraction pattern comprises discernible double lipid chain thickness and interbilayer separation arising from the aqueous fluid in contact with the polar head groups. For osmotically stressed multilamellar preparations, the interbilayer separation decreases as a function of applied pressure and reaches a minimum approaching the closest contact for the head groups of the opposing phospholipids. […]
In the multilamellar vesicles prepared from phospholipid compositions doped with the novel amphiphiles, the bulky head group residues are expected to reside in and enlarge (widen) the interbilayer gap. Therefore, in comparative studies on preparations with and without a selected amphiphile, the interbilayer repeat distances are measured. In addition, the effect of osmotic pressures, produced by 4% PVP (up to ca. 1.6×10^5 dyne/cm^2), is evaluated. […]
X-ray diffraction was used to characterize the liposomes (MLVs) prepared in EXAMPLE 1 by hydration of selected novel amphiphile and PC mixtures. […] Osmotic pressures for PVP solutions are recorded in the literature (Parsegian et al., 1986). […]

CCCCCCCC/C=C\CCCCCCCC(=O)O[C@H](COC(=O)CCCCCCCCCCCCCCCCC)COP(=O)([O-])OCC[N+](C)(C)C [SOPC, 1-stearoyl-2-oleoyl-sn-glycero-3-phosphocholine]
lamellar repeat period d100 in SOPC as a function of mole percent additive: 58 Å
